Test results reported in PubChem BioAssay (NCI).
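GI50 marks 50% less growth. TGI is the concentration that stops growth completely.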

Columns and labels:
Assay in all cases: NCI tumour cell line growth inhibition, 384-well format
786-0 renal = test system: 786-0 renal
A498 renal = test system: A498 renal
A549 NSCLC = test system: A549 NSCLC
ACHN renal = test system: ACHN renal
BT-549 breast = test system: BT-549 breast
CAKI-1 renal = test system: CAKI-1 renal
CCRF-CEM leukemia = test system: CCRF-CEM leukemia
COLO 205 colon = test system: COLO 205 colon
DU-145 prostate = test system: DU-145 prostate
EKVX NSCLC = test system: EKVX NSCLC
HCC-2998 colon = test system: HCC-2998 colon
HCT-116 colon = test system: HCT-116 colon
HCT-15 colon = test system: HCT-15 colon
HL-60(TB) leukemia = test system: HL-60(TB) leukemia
HOP-62 NSCLC = test system: HOP-62 NSCLC
HOP-92 NSCLC = test system: HOP-92 NSCLC
HS 578T breast = test system: HS 578T breast
HT29 colon = test system: HT29 colon
IGROV1 ovarian = test system: IGROV1 ovarian
K-562 leukemia = test system: K-562 leukemia
KM12 colon = test system: KM12 colon
LOX IMVI melanoma = test system: LOX IMVI melanoma
M14 melanoma = test system: M14 melanoma
MALME-3M melanoma = test system: MALME-3M melanoma
MCF7 breast = test system: MCF7 breast
MDA-MB-231 breast = test system: MDA-MB-231 breast
MDA-MB-435 melanoma = test system: MDA-MB-435 melanoma
MDA-MB-468 breast = test system: MDA-MB-468 breast
MOLT-4 leukemia = test system: MOLT-4 leukemia
NCI-H226 lung = test system: NCI-H226 lung
NCI-H23 lung = test system: NCI-H23 lung
NCI-H322M lung = test system: NCI-H322M lung
NCI-H460 NSCLC = test system: NCI-H460 NSCLC
NCI-H522 lung = test system: NCI-H522 lung
NCI/ADR-RES ovarian = test system: NCI/ADR-RES ovarian
OVCAR-3 ovarian = test system: OVCAR-3 ovarian
OVCAR-4 ovarian = test system: OVCAR-4 ovarian
OVCAR-5 ovarian = test system: OVCAR-5 ovarian
OVCAR-8 ovarian = test system: OVCAR-8 ovarian
PC-3 prostate = test system: PC-3 prostate
RPMI-8226 leukemia = test system: RPMI-8226 leukemia
RXF 393 renal = test system: RXF 393 renal
SF-268 CNS = test system: SF-268 CNS
SF-295 CNS = test system: SF-295 CNS
SF-539 CNS = test system: SF-539 CNS
SK-MEL-28 melanoma = test system: SK-MEL-28 melanoma
SK-MEL-5 melanoma = test system: SK-MEL-5 melanoma
SK-OV-3 ovarian = test system: SK-OV-3 ovarian
SN12C renal = test system: SN12C renal
SNB-19 CNS = test system: SNB-19 CNS
SNB-75 CNS = test system: SNB-75 CNS
SW-620 colon = test system: SW-620 colon
T-47D breast = test system: T-47D breast
TK-10 renal = test system: TK-10 renal
U251 glioblastoma = test system: U251 glioblastoma
UACC-257 melanoma = test system: UACC-257 melanoma
UACC-62 melanoma = test system: UACC-62 melanoma
UO-31 renal = test system: UO-31 renal

Nc1nc2cc(CC[C@H]3C[C@@H](n4ccc5c(N)ncnc54)[C@H](O)[C@@H]3O)ccc2cc1Br
GI50 ([…]-0 renal): 11.5 µM
TGI (786-0 renal): 23.7 µM
GI50 (A498 renal): 2.11 µM
TGI (A498 renal): 11.8 µM
GI50 (A549 NSCLC): 0.644 µM
TGI (A549 NSCLC): 15.8 µM
GI50 (ACHN renal): 13.4 µM
TGI (ACHN renal): 26.5 µM
GI50 (BT-549 breast): 4.06 µM
TGI (BT-549 breast): 18.3 µM
GI50 (CAKI-1 renal): 11.5 µM
TGI (CAKI-1 renal): 23.9 µM
GI50 (CCRF-CEM leukemia): 0.3 µM
TGI (CCRF-CEM leukemia): 10.4 µM
GI50 (COLO 205 colon): 4.18 µM
TGI (COLO 205 colon): 19.5 µM
GI50 (DU-145 prostate): 13.4 µM
TGI (DU-145 prostate): 26.5 µM
GI50 (EKVX NSCLC): 1 µM
TGI (EKVX NSCLC): 16.4 µM
GI50 (HCC-2998 colon): 10.5 µM
TGI (HCC-2998 colon): 22.5 µM
GI50 (HCT-116 colon): 1.66 µM
TGI (HCT-116 colon): 15.5 µM
GI50 (HCT-15 colon): 9.52 µM
TGI (HCT-15 colon): 21.8 µM
GI50 (HL-60(TB) leukemia): 13.8 µM
TGI (HL-60(TB) leukemia): 27 µM
GI50 (HOP-62 NSCLC): 0.37 µM
TGI (HOP-62 NSCLC): 12.1 µM
GI50 (HOP-92 NSCLC): 12.4 µM
TGI (HOP-92 NSCLC): 24.9 µM
GI50 (HS 578T breast): 11.7 µM
TGI (HS 578T breast): 24.1 µM
GI50 (HT29 colon): 1.85 µM
TGI (HT29 colon): 10.4 µM
GI50 (IGROV1 ovarian): 6.55 µM
TGI (IGROV1 ovarian): 20.8 µM
GI50 (K-562 leukemia): 0.348 µM
TGI (K-562 leukemia): 15.5 µM
GI50 (KM12 colon): 3.42 µM
TGI (KM12 colon): 20.7 µM
GI50 (LOX IMVI melanoma): 0.579 µM
TGI (LOX IMVI melanoma): 12.2 µM
GI50 (M14 melanoma): 10.6 µM
TGI (M14 melanoma): 22.5 µM
GI50 (MALME-3M melanoma): 10.2 µM
TGI (MALME-3M melanoma): 21.9 µM
GI50 (MCF7 breast): 0.983 µM
TGI (MCF7 breast): 15.8 µM
GI50 (MDA-MB-231 breast): 3.2 µM
TGI (MDA-MB-231 breast): 20.5 µM
GI50 (MDA-MB-435 melanoma): 12 µM
TGI (MDA-MB-435 melanoma): 24.5 µM
GI50 (MDA-MB-468 breast): 0.0253 µM
TGI (MDA-MB-468 breast): 0.433 µM
GI50 (MOLT-4 leukemia): < 0.01 µM
GI50 (NCI-H226 lung): 1.62 µM
TGI (NCI-H226 lung): 15.5 µM
GI50 (NCI-H23 lung): 0.392 µM
TGI (NCI-H23 lung): 18.8 µM
GI50 (NCI-H322M lung): 0.35 µM
TGI (NCI-H322M lung): 5.88 µM
GI50 (NCI-H460 NSCLC): < 0.01 µM
TGI (NCI-H460 NSCLC): 1.08 µM
GI50 (NCI-H522 lung): 11 µM
TGI (NCI-H522 lung): 23 µM
GI50 (NCI/ADR-RES ovarian): 5.73 µM
TGI (NCI/ADR-RES ovarian): 18.6 µM
GI50 (OVCAR-3 ovarian): 2.88 µM
TGI (OVCAR-3 ovarian): 13.8 µM
GI50 (OVCAR-4 ovarian): 0.4 µM
TGI (OVCAR-4 ovarian): 19 µM
GI50 (OVCAR-5 ovarian): 11.4 µM
TGI (OVCAR-5 ovarian): 23.8 µM
GI50 (OVCAR-8 ovarian): 1.46 µM
TGI (OVCAR-8 ovarian): 14.3 µM
GI50 (PC-3 prostate): 11.4 µM
TGI (PC-3 prostate): 23.7 µM
GI50 (RPMI-8226 leukemia): 2.14 µM
TGI (RPMI-8226 leukemia): 15.4 µM
GI50 (RXF 393 renal): 0.246 µM
TGI (RXF 393 renal): 16.3 µM
GI50 (SF-268 CNS): < 0.01 µM
TGI (SF-268 CNS): 1.44 µM
GI50 (SF-295 CNS): 12.4 µM
TGI (SF-295 CNS): 25.2 µM
GI50 (SF-539 CNS): 10.6 µM
TGI (SF-539 CNS): 22.5 µM
GI50 (SK-MEL-28 melanoma): 18.2 µM
TGI (SK-MEL-28 melanoma): 32.2 µM
GI50 (SK-MEL-5 melanoma): 0.309 µM
TGI (SK-MEL-5 melanoma): 2.33 µM
GI50 (SK-OV-3 ovarian): 12 µM
TGI (SK-OV-3 ovarian): 24.5 µM
GI50 (SN12C renal): 11.5 µM
TGI (SN12C renal): 23.8 µM
GI50 (SNB-19 CNS): 11.5 µM
TGI (SNB-19 CNS): 23.9 µM
GI50 (SNB-75 CNS): 1.95 µM
TGI (SNB-75 CNS): 16.5 µM
GI50 (SW-620 colon): 11.8 µM
TGI (SW-620 colon): 24.1 µM
GI50 (T-47D breast): < 0.01 µM
TGI (T-47D breast): 2.59 µM
GI50 (TK-10 renal): 12.6 µM
TGI (TK-10 renal): 25.4 µM
GI50 (U251 glioblastoma): 5.85 µM
TGI (U251 glioblastoma): 20.3 µM
GI50 (UACC-257 melanoma): 1.42 µM
TGI (UACC-257 melanoma): 11.5 µM
GI50 (UACC-62 melanoma): 11.5 µM
TGI (UACC-62 melanoma): 23.7 µM
GI50 (UO-31 renal): 11.9 µM
TGI (UO-31 renal): 24.4 µM
